Test [1] addresses HDAC. Description: Assay of enzyme inhibition of HDAC (BIOMOL kit, fluorescence). Type of test: biochemical. The settings on record: nuclear fraction of Hela cells; substrate 200 µM; 15 min at RT. The procedure: The in-vitro activity of HDAC inhibitors was assayed using a BIOMOL Kit, according to the instructions from the manufacturer (Biomolecular Research Laborator). 15 µl of 30 x diluted nuclear fraction of Hela cells, was diluted to 50 µl with the assay buffer containing the HDAC inhibitor and the substrate (lysine with acetylated amino group on the side chain) at a concentration of 200 µM. The samples were incubated for 15 min at RT and then exposed to a developer (10 min at RT). In this last step a fluorophore was produced, whose fluorescence was measured using an excitation wavelength of 355 nm and an emission at 460 nm. The IC50 was calculated using GraphPad Software.

In test [2] the test system is K562. The test is described as follows: Cell growth, CellTiter-Glo Luminescent Cell Viability Assay (antiproliferative assay). Type of test: cell-based. As to conditions: Homo sapiens; K562 cells, incubated for 72 h. An excerpt:
(§1) CellTiter-Glo® Luminescent Cell Viability Assay (Promega) is a homogeneous method of determining the number of viable cells in culture based on quantitation of the present ATP, which indicates the presence of metabolically active cells. The homogeneous assay procedure involves addition of a single reagent (CellTiter-Glo® Reagent) directly to the cells, which leads to cell lysis and generation of a luminescent signal proportional to the amount of the ATP and the number of cells present in culture. The assay relies on the properties of a proprietary thermostable luciferase (Ultra-Glo® recombinant luciferase), which generates a luminescent signal. K562, A549, and HCT-116 cells, in exponential growth, were incubated for 72 h with different concentrations of the inhibitors. After 72 h, a volume of CellTiter-Glo® Reagent equal to the volume of cell culture medium was added. The content was mixed for 2 min to induce cell lysis. The luminescence was recorded after further 10 min at RT in order to obtain a stable luminescent signal.
(§2) The IC50 was calculated using GraphPad Software.
Background: Cellular ATP, detected with luciferase, serves as a proxy for viable cell number.

Test [3] deals with HCT-116. The test is described as above. Type of test: cell-based. The settings on record: Homo sapiens; HCT-116 cells, incubated for 72 h; read-out: HCT116 IC50.
Excerpt: as §1, §2

Test [4] deals with A549. Described as above. Type of test: cell-based. The settings on record: Homo sapiens; A549 cells, incubated for 72 h.
Excerpt: as §1, §2

The term IC50 denotes the concentration needed to halve the response being measured.

Structures are written as SMILES. Bounds are passed on as bounds.

`O=C(/C=C/c1ccc2c(c1)C(=O)CC1(CN(Cc3ccccc3)C1)O2)NO` [Example 31, (E)-3-[1'-Benzyl-4-oxo-spiro(chromane-2,3'-azetidine)-6-yl]-N-hydroxy-acrylamide]: the concentration for half-maximal inhibition (IC50) is not above 0.1 µM in test [1], not above 1 µM in test [2], not above 1 µM in test [3] and not above 1 µM in test [4].
For the molecule `O=C(/C=C/c1ccc2c(c1)C(=O)CC1(CNC1)O2)NO` [Example 30, (E)-3-[4-Oxo-spiro(chromane-2,3'-azetidine)-6-yl]-N-hydroxy-acrylamide], the IC50 in test [1] was 0.1 to 1 µM; in test [2], 1 to 3 µM; in test [3], not below 3 µM; in test [4] it was not below 3 µM.
Regarding `CCOC(=O)N1CC2(CC(=O)c3cc(/C=C/C(=O)NO)ccc3O2)C1` [Example 38, (E)-3-[1'-Ethyloxycarbonyl-4-oxo-spiro(chromane-2,3'-azetidine)-6-yl]-N-hydroxy-acrylamide], the IC50 in test [1] is 0.1 to 1 µM; in test [2], 1 to 3 µM; in test [3], 1 to 3 µM; in test [4] it was not below 3 µM.
On to `O=C(/C=C/c1ccc2c(c1)C(=O)CC1(CCCN(Cc3ccc(F)cc3)C1)O2)NO` (racemic) [Example 19, (±)-(E)-3-[1'-(4-Fluoro-benzyl)-4-oxo-spiro(chromane-2,3'-piperidine)-6-yl]-N-hydroxy-acrylamide], for which the IC50 in test [1] is not above 0.1 µM; in test [2] it was not above 1 µM; in test [3] it was not above 1 µM; in test [4] it was 1 to 3 µM.
For `O=C(/C=C/c1ccc2c(c1)C(=O)CC1(CCN(C(=O)c3ccccc3)C1)O2)NO` (racemic) [Example 6, (±)-(E)-3-[1'-Benzoyl-4-oxo-spiro(chromane-2,3'-pyrrolidine)-6-yl]-N-hydroxy-acrylamide], the IC50 was 0.1 to 1 µM in test [1], not above 1 µM in test [2], not above 1 µM in test [3] and 1 to 3 µM in test [4].
Take `O=C(/C=C/c1ccc2c(c1)C(=O)CC1(CCCN(CCc3ccccc3)C1)O2)NO` (racemic) [Example 20, (±)-(E)-3-[1'-(2-Phenyl-ethyl)-4-oxo-spiro(chromane-2,3'-piperidine)-6-yl]-N-hydroxy-acrylamide]: the 50% inhibitory concentration (IC50) in test [1] is not above 0.1 µM; in test [2], not above 1 µM; in test [3], not above 1 µM; in test [4], not above 1 µM.
With `O=C(/C=C/c1ccc2c(c1)C(=O)CC1(CCCN(Cc3ccccc3)C1)O2)NO` (racemic) [Example 13, (±)-(E)-3-[1'-Benzyl-4-oxo-spiro(chromane-2,3'-piperidine)-6-yl]-N-hydroxy-acrylamide], the half-maximal inhibitory concentration (IC50) in test [1] was not above 0.1 µM; in test [2], not above 1 µM; in test [3], not above 1 µM; in test [4], not above 1 µM.
For `O=C(/C=C/c1ccc2c(c1)C(=O)CC1(CCN(Cc3ccccc3)C1)O2)NO` (single isomer, unassigned; (-)) [Example 3, (-)-(E)-3-[1 '-Benzyl-4-oxo-spiro(chromane-2,3'-pyrrolidine)-6-yl]-N-hydroxy-acrylamide], the half-inhibitory concentration (IC50) is not above 0.1 µM in test [1], not above 1 µM in test [2], not above 1 µM in test [3] and not above 1 µM in test [4].
In the case of `O=C(/C=C/c1ccc2c(c1)C(=O)CC1(CCCN(C(=O)c3ccccc3)C1)O2)NO` (racemic) [Example 21, (±)-(E)-3-[1'-Benzoyl-4-oxo-spiro(chromane-2,3'-piperidine)-6-yl]-N-hydroxy-acrylamide], the IC50 in test [1] is 0.1 to 1 µM; in test [2], 1 to 3 µM; in test [3] it was 1 to 3 µM; in test [4], not below 3 µM.
On to `CC(=O)N1CCCC2(CC1)CC(=O)c1cc(/C=C/C(=O)NO)ccc1O2` (racemic) [Example 24, (±)-(E)-3-[1'-Acetyl-4-oxo-spiro(chromane-2,4'-azepane)-6-yl]-N-hydroxy-acrylamide], for which the IC50 was 0.1 to 1 µM in test [1], not below 3 µM in test [2], not below 3 µM in test [3] and not below 3 µM in test [4].
`O=C(/C=C/c1ccc2c(c1)C(=O)NC1(CCCN(Cc3ccc(F)cc3)C1)O2)NO` (racemic) [Example 42, (±)-(E)-3-{1'-(4-Fluoro-benzyl)-3,4-dihydro-4-oxo-spiro[2H-(1,3)-benzoxazine-2,3'-piperidin]-6-yl}-N-hydroxy-acrylamide]: the IC50 was 0.1 to 1 µM in test [1], not above 1 µM in test [2], not above 1 µM in test [3] and 1 to 3 µM in test [4].
Regarding `O=C(/C=C/c1ccc2c(c1)C(=O)CC1(CCCN(Cc3ccccc3)C1)O2)NO` (single isomer, unassigned; (-)) [Example 17, (-)-(E)-3-[1'-Benzyl-4-oxo-spiro(chromane-2,3'-piperidine)-6-yl]-N-hydroxy-acrylamide], the half-inhibitory concentration (IC50) in test [1] was not above 0.1 µM; in test [2] it was not above 1 µM; in test [3], not above 1 µM; in test [4], 1 to 3 µM.
On to `O=C(/C=C/c1ccc2c(c1)C(=O)NC1(CCCN(CCc3ccccc3)C1)O2)NO` (racemic) [Example 43, (±)-(E)-3-{1'-(2-Phenyl-ethyl)-3,4-dihydro-4-oxo-spiro[2H-(1,3)-benzoxazine-2,3'-piperidin]-6-yl}-N-hydroxy-acrylamide], for which the IC50 is not above 0.1 µM in test [1], not above 1 µM in test [2], not above 1 µM in test [3] and not above 1 µM in test [4].
On to `O=C(/C=C/c1ccc2c(c1)C(=O)NC1(CCCNC1)O2)NO` (racemic) [Example 39, (±)-(E)-3-{3,4-Dihydro-4-oxo-spiro[2H-(1,3)-benzoxazine-2,3'-piperidin]-6-yl}-N-hydroxy-acrylamide], for which the IC50 in test [1] is 0.1 to 1 µM; in test [2], 1 to 3 µM; in test [3] it was 1 to 3 µM; in test [4] it was not below 3 µM.
Regarding `O=C(/C=C/c1ccc2c(c1)C(=O)CC1(CCCN(Cc3ccccc3)C1)O2)NO` (single isomer, unassigned; (+)) [Example 18, (+)-(E)-3-[1'-Benzyl-4-oxo-spiro(chrormane-2,3'-piperidine)-6-yl]-N-hydroxy-acrylamide], the half-inhibitory concentration (IC50) in test [1] was 0.1 to 1 µM; in test [2] it was not above 1 µM; in test [3], not above 1 µM; in test [4] it was 1 to 3 µM.
Regarding `O=C(/C=C/c1cc(F)c2c(c1)C(=O)CC1(CCN(Cc3ccccc3)CC1)O2)NO` [Example 51, (E)-3-(1'-Benzyl-8-fluoro-4-oxospiro[chroman-2,4'-piperidine]-6-yl)-N-hydroxy-acrylamide], the half-inhibitory concentration (IC50) in test [1] was 0.1 to 1 µM; in test [2], not above 1 µM; in test [3], not above 1 µM; in test [4], 1 to 3 µM.
`O=C(/C=C/c1ccc2c(c1)C(=O)CC1(CN(Cc3ccc(F)cc3)C1)O2)NO` [Example 33, (E)-3-[1'-(4-Fluoro-benzyl)-4-oxo-spiro(chromane-2,3'-azetidine)-6-yl]-N-hydroxy-acrylamide]: the IC50 in test [1] is 0.1 to 1 µM; in test [2], not above 1 µM; in test [3], not above 1 µM; in test [4], not above 1 µM.
On to `Cn1cc(CN2CCC3(CC(=O)c4cc(/C=C/C(=O)NO)ccc4O3)C2)c2ccccc21` (racemic) [Example 10, (±)-(E)-3-[1'-(1-Methyl-1H-indol-3-ylmethyl)-4-oxo-spiro(chromane-2,3'-pyrrolidine)-6-yl]-N-hydroxy-acrylamide], for which the IC50 was not above 0.1 µM in test [1], not above 1 µM in test [2], not above 1 µM in test [3] and not above 1 µM in test [4].

The values above are taken from patent EP2488529B1, “Spirocyclic derivatives as histone deacetylase inhibitors” (DAC S.r.l., priority 2009, dated 2011).
